# According to patent publication US20060128979A1, “High purity palm monoglycerides” (Lembaga Minyak Sawit Malaysia, priority 2004, published 2006):
# How the values were obtained:
# Format in all cases: cell-based
# [1] = test system: methicillin-resistant Staphylococcus aureus (MRSA) isolate CT184; assay: Disc diffusion assay, MRSA isolate CT184
# Description: (§1) Monolaurin samples (MC, MW and MX) synthesized using the present invention were subjected to bio-assay evaluation. Disc diffusion assay was adopted as preliminary evaluation of the compounds as anti methicillin-resistant Staphylococcus aureus (MRSA) agent. Four types of antibiotics were used as comparison: Vancomycin (Va), Rifampicin (RD), Chloamphenicol (C) and Gentamicin (CN).
# [2] = test system: methicillin-resistant Staphylococcus aureus (MRSA) isolate SP521; assay: Disc diffusion assay, MRSA isolate SP521
# Description: as §1
# [3] = test system: methicillin-resistant Staphylococcus aureus (MRSA) isolate SA; assay: Disc diffusion assay, MRSA isolate SA
# Description: as §1
# [4] = test system: methicillin-resistant Staphylococcus aureus (MRSA) isolate N34; assay: Disc diffusion assay, MRSA isolate N34
# Description: as §1
# [5] = test system: methicillin-resistant Staphylococcus aureus (MRSA) isolate U949; assay: Disc diffusion assay, MRSA isolate U949
# Description: as §1
# [6] = test system: methicillin-resistant Staphylococcus aureus (MRSA) isolate D51; assay: Disc diffusion assay, MRSA isolate D51
# Description: as §1
# [7] = test system: methicillin-resistant Staphylococcus aureus (MRSA) isolate ST122; assay: Disc diffusion assay, MRSA isolate ST122
# Description: as §1
# [8] = test system: methicillin-resistant Staphylococcus aureus (MRSA) isolate HIS87; assay: Disc diffusion assay, MRSA isolate HIS87
# Description: as §1
# [9] = C (Chloamphenicol) as comparison
Compound,"Diameter of Inhibitory Zone [1, 9]",Diameter of Inhibitory Zone ([1]; CN (Gentamicin) as comparison),Diameter of Inhibitory Zone ([1]; Rd (Rifampicin) as comparison),Diameter of Inhibitory Zone ([1]; Va (Vancomycin) as comparison),"Diameter of Inhibitory Zone [2, 9]",Diameter of Inhibitory Zone ([2]; CN (Gentamicin) as comparison),Diameter of Inhibitory Zone ([2]; Rd (Rifampicin) as comparison),Diameter of Inhibitory Zone ([2]; Va (Vancomycin) as comparison),"Diameter of Inhibitory Zone [3, 9]",Diameter of Inhibitory Zone ([3]; CN (Gentamicin) as comparison),Diameter of Inhibitory Zone ([3]; Rd (Rifampicin) as comparison),Diameter of Inhibitory Zone ([3]; Va (Vancomycin) as comparison),"Diameter of Inhibitory Zone [4, 9]",Diameter of Inhibitory Zone ([4]; CN (Gentamicin) as comparison),Diameter of Inhibitory Zone ([4]; Rd (Rifampicin) as comparison),Diameter of Inhibitory Zone ([4]; Va (Vancomycin) as comparison),"Diameter of Inhibitory Zone [5, 9]",Diameter of Inhibitory Zone ([5]; CN (Gentamicin) as comparison),Diameter of Inhibitory Zone ([5]; Rd (Rifampicin) as comparison),Diameter of Inhibitory Zone ([5]; Va (Vancomycin) as comparison),further results
"CCCCCCCCCCCC(=O)OCC(O)CO (stereo not shown) [MC, monolaurin]",0.82 mm,0.35 mm,0.42 mm,2.79 mm,2.68 mm,1.13 mm,1.13 mm,7.64 mm,2.00 mm,0.40 mm,0.40 mm,2.92 mm,0.89 mm,0.44 mm,0.44 mm,2.99 mm,4.73 mm,1.02 mm,1.02 mm,7.77 mm,"Diameter of Inhibitory Zone [6, 9]: 0.87 mm; Diameter of Inhibitory Zone ([6]; CN (Gentamicin) as comparison): 0.86 mm; Diameter of Inhibitory Zone ([6]; Rd (Rifampicin) as comparison): 0.11 mm; Diameter of Inhibitory Zone ([6]; Va (Vancomycin) as comparison): 2.95 mm; Diameter of Inhibitory Zone [7, 9]: 5.50 mm; Diameter of Inhibitory Zone ([7]; CN (Gentamicin) as comparison): 1.17 mm; Diameter of Inhibitory Zone ([7]; Rd (Rifampicin) as comparison): 1.17 mm; Diameter of Inhibitory Zone ([7]; Va (Vancomycin) as comparison): 8.26 mm; Diameter of Inhibitory Zone [8, 9]: 0.84 mm; Diameter of Inhibitory Zone ([8]; CN (Gentamicin) as comparison): 0.96 mm; Diameter of Inhibitory Zone ([8]; Rd (Rifampicin) as comparison): 0.11 mm; Diameter of Inhibitory Zone ([8]; Va (Vancomycin) as comparison): 2.79 mm"
"CCCCCCCCCCCC(=O)OCC(O)CO (stereo not shown) [MW, monolaurin]",0.82 mm,0.35 mm,0.42 mm,2.79 mm,2.14 mm,0.90 mm,0.90 mm,6.12 mm,3.72 mm,0.74 mm,0.74 mm,5.42 mm,0.93 mm,0.46 mm,0.46 mm,3.12 mm,1.85 mm,0.40 mm,0.40 mm,3.04 mm,"Diameter of Inhibitory Zone [6, 9]: 0.88 mm; Diameter of Inhibitory Zone ([6]; CN (Gentamicin) as comparison): 0.88 mm; Diameter of Inhibitory Zone ([6]; Rd (Rifampicin) as comparison): 0.11 mm; Diameter of Inhibitory Zone ([6]; Va (Vancomycin) as comparison): 3.00 mm; Diameter of Inhibitory Zone [7, 9]: 4.25 mm; Diameter of Inhibitory Zone ([7]; CN (Gentamicin) as comparison): 0.90 mm; Diameter of Inhibitory Zone ([7]; Rd (Rifampicin) as comparison): 0.90 mm; Diameter of Inhibitory Zone ([7]; Va (Vancomycin) as comparison): 6.38 mm; Diameter of Inhibitory Zone [8, 9]: 0.85 mm; Diameter of Inhibitory Zone ([8]; CN (Gentamicin) as comparison): 0.98 mm; Diameter of Inhibitory Zone ([8]; Rd (Rifampicin) as comparison): 0.12 mm; Diameter of Inhibitory Zone ([8]; Va (Vancomycin) as comparison): 2.84 mm"
